From patent publication EP0327365B1, “Improvements in or relating to modified haptens useful as imaging and therapeutic agents” (HYBRITECH INCORPORATED, priority 1988, dated 1989)

How the values were obtained:
[1] = tested on: antibody CHA255; assay: Antibody CHA255 binding assay (Centrifree ultrafiltration); set-up: species or system BALB/c mice; details: ⁹⁰Y³⁺ or ¹¹¹In³⁺ chelate of DTPA alone
Protocol: As indicated, the monoclonal antibody CHA255 is specific for the In³⁺-benzyl EDTA complex. The affinity and characterization have been described previously in Nature, 316, 265 (1985). Binding assays were performed to verify the identity of the haptens designated as DB-I to DB-VIII. […] For the ⁹⁰Y³⁺ hapten chelate, in particular, CHA255 binding required the presence of the In-benzyl-EDTA moiety as provided in the compounds of the invention. The labeled DB hapten chelates were combined with antibody CHA255 in PBS (10 mM sodium phosphate, 150 mM sodium chloride, pH 7.4) containing 44 »g/ml of human serum albumin and 0.05% Triton-X-100 detergent. Concentrations of the radiolabeled hapten chelating agent and antibody are 5 nM and 133 nM, respectively. The mixture is vortexed and allowed to stand at room temperature for 15 minutes, after which it is transferred to an Amicon Centrifree™ device, with a NMW limit of 30,000, and centrifuged to separate antibody-bound chelate from free hapten chelate. The species bound to the antibody is retained by the membrane and the free chelate flows through the membrane into the filtrate. The extent of antibody-hapten chelate binding is then determined.

[2] = tested on: T-380 tumors; assay: Hapten biodistribution, premix protocol with bifunctional antibody ECH037.2; format: in vivo, nude mice; set-up: TOTAL RECOV: unit not given here; details: for % DOSE PER GRAM, KIDNEY / % DOSE PER GRAM, LIVER / % DOSE PER GRAM, TUMOR / FECES / TOTAL RECOV / URINE / % DOSE PER GRAM, BLOOD / TUMOR/BLOOD: premix with 20 µg ECH037.2; for % DOSE PER GRAM, BLOOD: 111In-labeled hapten i.v.; for TUMOR/BLOOD: ratio; for Percent Injected Dose in Feces: premix protocol (Table VI)
Protocol: (§1) Two protocols were used for examining the biodistribution of the derivatized haptens in the presence of the bifunctional antibody ECH037.2. In a premix protocol, ECH037.2 and the derivatized hapten were combined prior to injection in the animals. In the prelocalization protocol, ECH037.2 was injected into the animals, and the antibody was allowed to prelocalize for 24 hours prior to injection of the radiolabeled hapten.
(§2) Biodistribution studies were performed in nude mice carrying subcutaneous implants of the human colon carcinoma cell line T-380 which expresses the carcinoembryonic antigen (CEA) recognized by ECH037.2. Briefly, Balb/C Nu/Nu mice were injected subcutaneously with a minced preparation of T-380 tumor implants and maintained for approximately two weeks, or until the tumor implant had grown to a size of approximately 0.5 grams as described by Hagan, P.L., et al. J. Nuc. Med., 26 1418-1423 (1985). Mice were kept in a sterile environment to prevent complications due to bacterial or viral infections. Biodistributions were performed as described by Halpern, S., et al., Cancer Res. 43, 5347-5355 (1983). Briefly, the radiolabeled haptens were injected intravenously in […], and the pharmacokinetics were evaluated at several time points post-injection. At these times, mice were sacrificed and weighed. Organs were removed, their weight recorded, and each organ was then washed in sterile PBS, pH 7.0, and fixed in formalin solution. Samples of blood, urine and feces also were collected and their weight similarly recorded. The organs, or a portion thereof, were transferred to clean tubes and their radioactive content was determined in a well-type gamma-counter.
(§3) Relative radioactive content of each organ was expressed as a percentage of injected dose per organ.
To indium-label the haptens of the invention 10 »l of 0.1 mM ligand was combined with X »l of ¹¹¹InCl₃ (in 50 mM HCl) and (x+10) »l of 0.26 M ammonium citrate, pH 6.0. X is calculated by the following equation: X = (200 »Ci)/(A »Ci/»l) [formula] where A is the specific activity of the ¹¹¹In.
The labeling was done in an acid-washed microfuge tube. After combining all of the components above, the solution was vortexed and allowed to stand at room temperature for 15 minutes.
Incorporation of the ¹¹¹In into the chelating agent was determined by TLC on silica in a methanol/aqueous ammonium acetate solvent system as described by Meares, et al. (Anal. Biochem., 142, 68-75 (1984)). Greater than 95% incorporation of the radioactivity into the chelate was required for the sample to be submitted for a biodistribution assay.
Prior to injection the ¹¹¹In-labeled hapten was diluted into freshly prepared isotonic sodium bicarbonate (1.39% w/v) containing 1 mg/ml normal human serum albumin (Buminate, 25% solution, Travenol Laboratories, Glendale, California) to which the bifunctional antibody had been added. The final composition of the solution was 0.2 mg/ml ECH037.2, 0.5 »M chelate, 0.1 »Ci/»l ¹¹¹In, all in a volume of 2.0 ml. For the biodistribution studies, 100 »l of the solution was injected into the tail vein of each animal.

[3] = Aqueous solubility (observation during synthesis); format: physicochemical; details: metal-free chelating agent, in words
[4] = tested on: T-380 tumors; assay: Hapten biodistribution, prelocalization protocol with bifunctional antibody ECH037.2; format: in vivo, nude mice
Protocol: as §1, §2, §3
To indium-label the chelating agents for the prelocalization protocol, 5 »l of 0.1 mM chelating agent was combined with X »l of ¹¹¹InCl₃ (in 50 mM HCl) and (x+5) »l of 0.26 M ammonium citrate, pH 6.0. X was calculated by the following equation: X = 200 »Ci/A »Ci/»l [formula] where A is the specific activity of the ¹¹¹InCl₃ solution. The solution was vortexed and allowed to stand at room temperature for 15 minutes, after which incorporation of ¹¹¹In label into the chelating agent was determined as described for the premix protocol. If at least 95 percent of the ¹¹¹In was bound by the chelating agent, the material was then diluted to a final volume of 2 ml with isotonic (1.39 percent, w/v) sodium bicarbonate containing 1 mg/ml normal human serum albumin. This material (100 »l) then was injected into each tail vein of mice which had each been injected 24 hours earlier with 5 »g of ECH037.2 in 100 »l isotonic sodium bicarbonate containing 1 mg/ml normal human serum albumin.

[5] = tested on: monoclonal antibody CHA255; assay: Determination of hapten-antibody dissociation rates; format: binding, BALB/c mice; details: 22°C; indium complex of hapten from CHA255 after 100 fold excess of indium-115 loaded hapten
Protocol: Hapten-antibody dissociation rates were determined using monoclonal antibody CHA255, prepared as described in Example 2A, by measuring the quantity of ¹¹¹In³⁺ chelate released from the antibody hapten complex as a function of time after addition of a 100 fold excess (over antibody binding sites) of indium-115 loaded hapten. Thus, for each hapten, a 700 »l solution was prepared containing: antibody at a concentration of 160 nM; indium loaded hapten, trace labeled with ¹¹¹In (total concentration = 160 nM); normal human serum albumin at a total concentration of 1.5 mg/mL; and isotonic phosphate buffered saline, (10 mM PO₄²⁻, 150 mM NaCl, pH 7.2). Indium-115 loaded hapten was added to a final Concentration of […]. Reactions were stirred by placing the sample containers ir a rack mounted on a vortexer head.
At various times after addition of the excess hapten, […] portions of the reaction solutions were transferred to Centrifree tubes (Amicon Corperation, Danvers, Massachusetts) and centrifuged at 1500xg for eight to ten minutes. The reaction time was taken to be the time between addition of the excess hapten and the time the centrifuge reached the desired velocity. Six timepoints, each in duplicate, were obtained over a range of about two reaction half-lives for each rate constant determination. A 200 »l portion from each centrifuged and uncentrifuged solution was then counted for ¹¹¹In. The relative concentration of free hapten was taken to be the ratio of counts in the centrifuged solution to the uncentrifuged solution at each timepoint. Times were recorded to the nearest tenth of a minute.
Room temperature rate constants were measured without the aid of a constant temperature bath. The ambient temperature remained at 22°±1 C.
Rate constants and standard deviations were obtained from a plot of the logarithm of relative complex concentration vs. time. Data were analyzed using the linear regression module of the RS/1 Program (BBN Software Products Corporation, Cambridge, Massachusetts).
Control samples were included in each experiment to determine: A) that the initial condition of 100% of labeled hapten bound to antibody was met, and B) that in the absence of antibody, 100% of counts were able to penetrate the Centrifree membrane. […]

| SMILES | % DOSE PER GRAM, KIDNEY ([2]; 24 hours) [% DOSE PER GRAM] | % DOSE PER GRAM, LIVER ([2]; 24 hours) [% DOSE PER GRAM] | % DOSE PER GRAM, TUMOR ([2]; 24 hours) [% DOSE PER GRAM] | FECES ([2]; 24 hours) | TOTAL RECOV ([2]; 24 hours) | URINE ([2]; 24 hours) | % DOSE PER GRAM, BLOOD ([2]; 24 hours) [% DOSE PER GRAM] | TUMOR/BLOOD ([2]; 24 hours) | Percent Injected Dose in Feces ([2]; 24 hrs.) [Percent Injected Dose] | % DOSE PER GRAM, KIDNEY ([2]; 48 hours) [% DOSE PER GRAM] | % DOSE PER GRAM, LIVER ([2]; 48 hours) [% DOSE PER GRAM] | % DOSE PER GRAM, TUMOR ([2]; 48 hours) [% DOSE PER GRAM] | FECES ([2]; 48 hours) | TOTAL RECOV ([2]; 48 hours) | URINE ([2]; 48 hours) | % DOSE PER GRAM, BLOOD ([2]; 48 hours) [% DOSE PER GRAM] | TUMOR/BLOOD ([2]; 48 hours) | Percent Injected Dose in Feces ([2]; 48 hrs.) [Percent Injected Dose] | also measured |
| --- | --- | --- | --- | --- | --- | --- | --- | --- | --- | --- | --- | --- | --- | --- | --- | --- | --- | --- | --- |
| O=C(O)CN(CCN(CC(=O)O)CC(=O)O)CCN(CC(=O)O)CC(=O)O [DTPA, diethylenetriaminepentaacetic acid] | – | – | – | – | – | – | – | – | – | – | – | – | – | – | – | – | – | – | binding to CHA255 [1]: neither ⁹⁰Y³⁺ or ¹¹¹In³⁺ DTPA, alone, bound to CHA255 |
| CCCCCCCCNC(=S)Nc1ccc(CC(CN(CC(=O)O)CC(=O)O)N(CC(=O)O)CC(=O)O)cc1 (centres unmarked) [OTUBE] | 0.5 | 0.8 | 1.1 | 56.5% of total injected dose | 68.9 | 8.9% of total injected dose | 1.1 | 1.00 | 56.5 | 0.2 | 0.6 | 0.7 | 68.4% of total injected dose | 81.4 | 10.9% of total injected dose | 0.5 | 1.40 | 68.4 | amount of hapten in the tumor ([2]; 24 hrs., premix protocol): 1.1 percent injected dose/gram; injected material excreted in the feces ([2]; 48 hrs. post injection, premix protocol): 68.4% of the injected material; amount of hapten in the tumor ([2]; 48 hrs., premix protocol): 0.7 percent injected dose/gram; aqueous solubility [3]: Low aqueous solubility |
| O=C(O)Cc1ccc(NC(=S)Nc2ccc(CC(CN(CC(=O)O)CC(=O)O)N(CC(=O)O)CC(=O)O)cc2)cc1 (centres unmarked) [PHATUBE] | 1.2 | 1.7 | 8.4 | 22.0% of total injected dose | 59.7 | 21.7% of total injected dose | 6.2 | 1.35 | 22.0 | 0.8 | 1.1 | 6.9 | 34.9% of total injected dose | 66.4 | 22.4% of total injected dose | 3.7 | 1.86 | 34.9 | fecal excretion ([4]; 5 µg ECH037.2 24 hours earlier, all time points (4, 24, 48 hours), Figures 3-5, in words): high degree of fecal excretion; tumor/organ values ([4]; Figures 6-8 (4, 24, 48 hours), in words): exceptional; t1/2, Dissociation Half-Lives [5]: 1.19 h |
